In US8722623B2, “Compositions and methods utilizing fibrin beta chain fragments” (University of Maryland, Baltimore, priority 2007, dated 2014):
“Also recorded” adds a separate entry of the source. No end group written: not given here.

Key:
VE-cadherin [1] = assay: Surface plasmon resonance binding of peptides to immobilized VE-cadherin fragment; conditions: for binding to VE-cadherin: added at 400 nM; for affinity to VE-cadherin (in words): comparison between peptides
Procedure: To test binding activities of fibrin beta chain derived peptides of the invention to VE-caherin, surface plasmon resonance (SPR) methods are, for example, used. SPR experiments are performed using, for example, a BIAcore 3000 biosensor (BIAcore AB, Uppsala, Sweden), which can be used to measure the association/dissociation of peptides or proteins in real-time (see, for example, Karlsson, R., and Falt, A. J. Immunol. Methods (1997) 200, 121-133; Hall, D. Anal. Biochem. (2001) 288, 109-125; see also Gorlatov et al. Biochemistry (2002) 41, 4107-4116 for other VE-cadherin binding assays including, for example, SPR IAsys Analysis based assays and ELISA based assays). An exemplary method is described in the following passage. VE-cadherin fragment is covalently coupled via epsilon-amino groups to the activated surface of a CM5 biosensor chip by the procedure described by, for example, Karlsson, R., and Falt, A. (J. Immunol. Methods (1997) 200, 121-133; see also Gorlatov et al. Biochemistry (2002) 41, 4107-4116). Briefly, the carboxyl groups on the sensor surface were activated with an injection of a solution containing, for example, 0.2 M N-ethyl-N-(3-diethylamino-propyl) carbodiimide and 0.05 M N-hydroxysuccinimide. VE-cadherin to be coupled is prepared in 10 mM sodium-acetate buffer, pH 4.0, containing 1 mM CaCl2, and injected onto the activated CM5 surface at 5 mL/min followed by incubation for 7 min after which the surface was deactivated by passing 1 M ethanolamine. Activation time, ligand concentration, and contact time are adjusted to achieve a coupling density of 5-6 ng/mm2. Binding experiments are performed, for example, in 10 mM Hepes buffer, pH 7.4, containing 200 mM NaCl, 1 mM CaCl2, 0.02% NaN3, and 0.05% n-octyl beta-D-glucopyranoside (binding buffer). Samples comprising, for example, fibrin beta chain derived peptides β15-42, β15-64, and (β15-66)2, at different concentrations are injected in duplicate in at least three separate experiments and the association/dissociation between the immobilized and the added peptides is monitored as the change in the SPR response. To regenerate the chip, complete dissociation of the complex was achieved by adding, for example, 20 mM Tris buffer, pH 7.5, containing 0.5 M urea, 0.5 M NaCl, and 0.5% Triton X-100, for 1 min following reequilibration with binding buffer. Experimental data are analyzed using, for example, BIAevaluation 3.0 software supplied with the instrument. Briefly, kinetic constants, kass and kdis, are estimated by global analysis of the association/dissociation curves to the 1:1 Langmurian interaction model (Morton, T. A., and Myszka, D. G. Methods Enzymol. (1998) 295, 268-294). The dissociation equilibrium constant (Kd) is calculated as Kd=kdiss/kass. It is also noted that other methods known to one of ordinary skill in the art can be used to determine binding activities of fibrin beta chain derived peptides of the invention to VE-caherin including, for example, ELISA-based methods (see, for example, Gorlatov et al. Biochemistry (2002) 41, 4107-4116).

[2] = test system: leukocyte (neutrophil) migration into the peritoneum; assay: Thioglycollate-induced in vivo peritonitis model of leukocyte migration; set-up: species or system mouse; conditions: for leukocyte migration / number of leukocytes accumulating in the peritoneum: peptide i.v. prior to i.p. thioglycollate, peritoneal lavage at 4 h, versus PBS control; for inhibition of leukocyte infiltration and migration compared to β15-42: (β15-66)2 8.6 mg/kg, (β15-44)2 5.1 mg/kg
Procedure: We compared their anti-inflammatory effects in an in vivo peritonitis model, a well established mouse model for leukocyte migration into sites of acute inflammation. In this model, leukocyte migration from the circulation into the peritoneum was stimulated by intraperitoneal (i.p.) injection of thioglycollate, and leukocyte (neutrophil) accumulation was evaluated after 4 hours by measuring the cell number in the peritoneal lavage.
Leukocyte (e.g., neutrophil) infiltration is a hallmark of injury associated with ischemia and reperfusion, as well as a number of other inflammatory conditions. Therefore, peptides of the invention are tested to determine the ability to decrease leukocyte infiltration in vivo. The ability to inhibit leukocyte infiltration was tested in an in vivo model of peritonitis, which is a well established mouse model for leukocyte infiltration and migration into sites of inflammation. The protocol for this animal model is described as below. Experiments were performed consistent with accepted practice (see, for example, Bosse et al. 1994. Eur. J. Immunol. 24: 3019; Borges et al. 1997. Blood 90: 1934; US Patent Application Publication No. 20030105020). To induce peritonitis, thioglycollate was administered intraperitoneally (i.p.) to mice. For inhibition studies, mice were injected intravenously (i.v.) with either β15-42, (β15-44)2, or (β15-66)2 prior to i.p. injection of thioglycollate (FIG. 4). Control mice were treated with the same volume of PBS. All reagents are kept endotoxin-free. At 4 h after injection of thioglycollate, mice were sacrificed and the peritoneal lavage was generated by, for example, injecting 10 ml PBS, massaging the peritoneal wall, and removing the fluid. Following the peritoneal lavage, leukocytes were quantified (e.g., neutrophil quantification determined using a hemocytometer).

VE-cadherin [3] = target: T1, VE-cadherin (Homo sapiens, UniProt P33151); conditions: cited from earlier work
T1 sequence (P33151 48-784): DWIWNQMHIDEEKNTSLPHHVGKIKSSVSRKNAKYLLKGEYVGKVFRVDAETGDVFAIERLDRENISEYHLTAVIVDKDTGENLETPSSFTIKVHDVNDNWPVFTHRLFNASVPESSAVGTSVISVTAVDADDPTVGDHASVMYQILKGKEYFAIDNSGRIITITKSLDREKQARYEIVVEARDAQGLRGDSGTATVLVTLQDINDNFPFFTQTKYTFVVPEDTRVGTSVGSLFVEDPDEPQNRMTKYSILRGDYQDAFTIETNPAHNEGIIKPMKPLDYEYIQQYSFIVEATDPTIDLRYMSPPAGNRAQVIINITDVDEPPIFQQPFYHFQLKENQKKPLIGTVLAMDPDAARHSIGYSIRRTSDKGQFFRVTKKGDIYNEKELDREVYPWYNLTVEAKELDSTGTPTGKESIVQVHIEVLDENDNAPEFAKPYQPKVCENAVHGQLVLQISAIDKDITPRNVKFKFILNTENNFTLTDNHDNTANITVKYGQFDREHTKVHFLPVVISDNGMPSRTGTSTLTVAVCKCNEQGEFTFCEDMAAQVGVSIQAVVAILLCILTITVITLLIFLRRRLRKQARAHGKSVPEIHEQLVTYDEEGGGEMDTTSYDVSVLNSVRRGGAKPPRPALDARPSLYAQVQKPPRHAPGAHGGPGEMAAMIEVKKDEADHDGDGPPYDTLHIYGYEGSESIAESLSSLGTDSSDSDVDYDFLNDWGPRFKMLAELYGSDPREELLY

[4] = test system: myocardial ischemia-reperfusion injury; conditions: acute or chronic rat models; cited from earlier work
ischemic myocardium = assay: Coronary artery ligation mouse model of myocardial infarction (ischemia and reperfusion); format: in vivo; conditions: MI mice, i.v., about 16 nanomoles
Excerpt: To confirm the ability of (β15-66)2, (β15-44)2, (β15-40)2, (β15-35)2, and β15-42 to protect (with the former peptides showing increased protection over β15-42) against injury following ischemia and reperfusion an animal model of myocardial infarction (MI) is employed. The effect of the β15-42, (β15-66)2, (β15-44)2, (β15-40)2, and (β15-35)2 (and other fibrin beta chain derived peptides of the invention) on the protection and infiltration and migration of leukocytes into the ischemic myocardium is determined by, for example, using a coronary artery ligation mouse model of MI. To determine the efficacy of these peptides to protect against injury and inhibit leukocyte infiltration and migration into the myocardium following ischemia a fibrin beta chain derived peptide is administered (for example, at a dose of about 16 nanomoles, which can be adjusted accordingly to determine efficacy) i.v. into 8-12 week-old C57BL6 mice (20 to 25 g), for example, prior to left anterior descending (LAD) coronary artery ligation, upon reperfusion, or after reperfusion. Mice injected with PBS are used as controls. […] Administration can be adjusted based on, for example, pharmacodynamic and pharmacokinetic properties.
The study may comprise at least 7 different groups: sham-operated control (group #1), MI mice with no treatment (group #2), and MI mice treated with β15-42 (group #3), (β15-66)2 (group #4), (β15-44)2 (group #5), (β15-40)2 (group #6), and (β15-35)2 (group #7). To ensure objectivity, these experiments are conducted in a double-blind and placebo-controlled manner. Thus, β15-42, (β15-66)2, (β15-44)2, (β15-40)2, (β15-35)2, and PBS are assigned randomly to a reference number, which is blinded to the personnel involved in conducting the surgery and performing post-surgery analysis. […] Leukocyte infiltration into the ischemic myocardium is determined by H&E staining and cardiomyocyte apoptosis is determined by TdT-mediated dUTP Nick-End Labeling (TUNEL) staining. […]

Row | Substance | binding to VE-cadherin (VE-cadherin [1]) | affinity to VE-cadherin (in words) (VE-cadherin [1]) | leukocyte migration / number of leukocytes accumulating in the peritoneum [2] | inhibition of leukocyte infiltration and migration compared to β15-42 ([2]; peritonitis model, 4 h) | efficacy compared to β15-42 (ischemic myocardium) | other results
1 | β15-42: peptide which includes amino acid residues 15-42 of the fibrin β chain (GHRPLDKKREEAPSLRPAPPPISGGGYR) [reference compound] | very little binding | weak | significantly lower; also recorded: inhibits leukocyte migration | – | – | competition with fibrin for the interaction with VE-cadherin (VE-cadherin [3]): competes with fibrin for the interaction with VE-cadherin; myocardial inflammation and infarct size [4]: substantially reduced
2 | (β15-35)2: dimer; monomer GHRPLDKKREEAPSLRPAYCG (SEQ ID NO:7) (GHRPLDKKREEAPSLRPAYCG; also: disulfide-linked homodimer) | – | even higher affinity | – | even further inhibit leukocyte infiltration and migration | increased efficacy | affinity to VE-cadherin compared to both (β15-44)2 and (β15-40)2 (VE-cadherin [1]; FIG. 3): unexpectedly higher degree of affinity
3 | β15-64: monomeric fibrin β chain residues 15-64 (fibrin βN-domain) [reference compound] | very little binding | – | – | – | – | –
4 | thymosin β4 (SDKPDMAEIEKFDKSKLKKTETQEKNPLPSKETIEQEKQAGES; Thymosin beta-4; UniProt P62328 2-44, looked up) [TB4] | – | – | inhibits leukocyte migration | – | – | –
5 | (β15-44)2: synthetic dimer; monomer GHRPLDKKREEAPSLRPAPPPISGGGYRCG (SEQ ID NO:5), Cys43-Cys43 disulfide bond (GHRPLDKKREEAPSLRPAPPPISGGGYRCG; also: Cys43-Cys43 disulfide homodimer) | – | comparable to that of (β15-66)2; also recorded: even higher affinity | inhibits leukocyte migration | almost twice as much | increased efficacy | number of leukocytes compared to β15-44 ([2]; peritonitis model, 4 h): decrease in the number of leukocytes; inhibitory effect on leukocyte transmigration compared to (β15-66)2 ([2]; peritonitis model, FIG. 4): superior
6 | (β15-40)2: dimer; monomer GHRPLDKKREEAPSLRPAPPPISYCG (SEQ ID NO:6) (GHRPLDKKREEAPSLRPAPPPISYCG; also: disulfide-linked homodimer) | – | even higher affinity | – | even further inhibit leukocyte infiltration and migration | increased efficacy | –
